Assay results from patent US6723897B2, “Methods for controlling gibberellin levels” (Monsanto Technology, LLC, priority 1998, dated 2004).

How the values were obtained:
[1] = tested on: soybean (A3237) in sand saturated with 3 mg/L ancymidol; assay: GA3 seed coating, reversal of ancymidol inhibition of soybean stature; type: in vivo, Glycine max; conditions: 3 mg GA3/kg seed (Release blended with talc); plant height at 6 DAP
Description: The timing of emergence and plant stature at for transgenic (plasmid pMON29801, FMV/asCPScc) soybean line 724 is rescued by sowing seeds in soil saturated with 3×10^−6 M GA3. At 7 days after planting (DAP), the GA3 treatment to the seeds rescued plant stature to within 10% of the A3237 control. As an additional control, soybean (A3237) seeds are coated with different concentrations of a commercial formulation of GA3 (Release®) blended with talc and sown in sand saturated with 3 mg/L ancymidol and grown in a greenhouse. Plant height is measured at 6 DAP. […] This rate is equivalent to approximately 62 mg GA3 per acre (assuming 140,000 seeds/acre).

[2] = tested on: A3237 soybean; assay: GA3 soil drench, shoot length of control soybean; type: in vivo, Glycine max; conditions: line A3237; +3 × 10^−6 M GA3 soil drench; 7 days after planting
Excerpt: Thirty-five soybean plants are produced by transformation with pMON29801 (FIG. 7) containing the antisense CPS conserved core (asCPScc) gene driven by constitutive FMV promoter. The seed (R1) from the initial R0 transgenic lines is collected. R1 seeds are sown in 4-inch pots filled with commercial potting soil (Metromix 350) that is saturated with water or GA3 at a rate of either 3×10^−6 or 10^−5 M. Typically, 20 seeds are sown in 10 pots for each treatment, except where the seed supply is limiting. Pots are incubated in a greenhouse routinely used for soybean growth. Emergence is scored versus days after planting (DAP). Two soybean lines, 724 and 720, show a delayed emergence phenotype. Line 724 emergence is 1 to 2 days later than the control.
GA3 added to plasmid pMON29801 transgenic soybean seeds as a soil drench also restores soybean emergence timing and plant height during early seedling growth. Rates of GA3 between 1×10^−6 and 1×10^−5 M, when added to soil either immediately before planting or immediately after, restores normal shoot length in emerged Line #719 seedlings (Table 5).

[3] = tested on: R1 lines from pMON29220 (P-ICL/canola antisense CPS); assay: Emergence of R1 canola seed (pMON29220) with exogenous GA3; type: in vivo, Brassica napus; conditions: GA3 10^−5 M to the seed or soil; lines with 2 day delay in emergence
Excerpt: Seeds are produced from plants transformed with plasmid pMON29220 (P-ICL/canola antisense CPS). These are planted and analyzed for germination phenotype. A 2 day delay in emergence is observed for 58% of the R1 lines tested from pMON29220.

[4] = tested on: constitutively GA-deficient transgenic dwarf soybean line 719; assay: Field trial of seed coating application rates, GA-deficient soybean; type: in vivo, Glycine max; conditions: for 719 Height, cm, Heavy soil / 719 Height, cm, Light soil / No. 719 Emerged, Heavy soil / No. 719 Emerged, Light soil / No. 719 Not Rescued, Heavy soil / No. 719 Not Rescued, Light soil: seed coating
Description: GA3, GA3-3-acetate, GA5, GA9, and GA12 are evaluated in further field trials. […] The objectives of these tests are: 1) to determine if seed coatings, as compared to imbibition, of GA compounds facilitate rescue of constitutively GA-deficient transgenic dwarf soybeans (transgenic lines 719−2 plus 719+17) without causing elongation of wild-type soybeans (line A4922), and 2) to determine the seed treatment rate ranges for each of the selected GA compounds that would provide rescue of constitutively GA-deficient transgenic dwarf soybeans (transgenic lines 719−2 plus 719+17) without causing elongation of wild-type soybeans (line A4922).
Seeds are treated with GA3, GA5, GA9, GA12, and GA3-3-acetate at rates of 0, 0.1, 1, 10, and 100 μg/seed. These GA compounds are applied to the seeds using a Hege 11 seed treater (Hans-Ulrich Hege GmbH & Co., Waldenburg, Germany); 100% acetone is used as the carrier solvent. The amount of liquid introduced into the seed treater is six fluid ounces/100 lbs seed rate. In addition, GA12 is tested at 50 μg/seed. The untreated control (UTC) consisted of dry, untreated seeds. Seeds of constitutively GA-deficient transgenic dwarf soybean line 719 and wild-type A4922 are sown in both light and heavy soil. The planting depth is 0.5 to 1 inch (1.27 to 2.54 cm); watering is via drip irrigation. The experiment is carried out in three repetitions, using 25 seeds/plot (one five foot (152.4 cm) long row) for line 719, and 75 seeds/plot (two eight foot (243.8 cm) rows) for line A4922. Observations included total emergence, number of dwarfs not rescued, uniformity in plant height, average plant height, visual notes, and digital photos.
In all the experiments reported in Tables 17-24, treatments are replicated three times in a randomized block design. Data are analyzed using LSD (least significant difference) 0.05 probability using the PRM 5.0 Statistical Analysis Program (SAS Institute, North Carolina).

[5] = tested on: wild-type (A3237) soybean; assay: Hilum treatment with GA15, GA19, GA24, GA44, hypocotyl length, wild-type soybean; conditions: 10 μg/seed, 5 DAP
Description: The purpose of this experiment is to evaluate potential gibberellin rescue agents occurring at an intermediate or middle portion of the gibberellin biosynthesis pathway (between GA53/GA12 and GA20/GA9) as seed treatments. These GA compounds are tested using hilum treatment and comparing activity on GA-deficient soybean plants and normal (wild-type) plants.
Wild-type A3237 soybeans are obtained from Asgrow Seed Company. Transgenic seeds are fifth generation (R5) line 719 seeds.
The GA compounds are dissolved in absolute ethanol at a concentration of approximately 10 μg/ml. Compounds are applied to the hilum of dry soybean seed as 1 μl drops. Seeds are sown in 4-inch plastic pots (2 pots per treatment; 5 seeds/pot) containing commercial potting soil (Metromix 200) placed in a greenhouse set for 12 hr light, and day and night temperatures of 85° F. (29° C.) and 75° F. (24° C.), respectively. After all treatments are emerged (5 DAP), hypocotyl length is measured.

[6] = tested on: ancymidol-treated soybean; assay: GA3 soil drench restoring seedling height in ancymidol-treated soybean; type: in vivo, Glycine max
Excerpt: For example, in side-by-side comparisons using soybean, the same dose of GA3 gives substantial differences in hypocotyl elongation depending on the method of application. The relative sensitivity can be: soil drench>hilum treatment>seed imbibition). Also, the dose of GA3, applied as a soil drench, that is needed to fully restore normal seedling height in ancymidol-treated soybean increases with time after planting (10^−7M at 4 DAP; greater than 10^−5 M at 11 DAP).

[7] = tested on: asCPScc soybean lines 696, 719, 720 and 724; assay: Seed yield of asCPScc soybean lines treated with GA3; type: in vivo, Glycine max
Description: One hundred nine soybean plants from four […] lines (696, 719, 720 and 724) identified with GA-deficient phenotypes are grown to maturity and the seed harvested. Three of the lines (696, 719 and 720) required weekly spraying with GA3 to restore normal vegetative growth. […] Seed yield, seed weight per seed, pod number and seeds/pod data are collected for each plant. Data is collected in three groups for each line: plants that are wild-type; plants that are dwarfs and received no exogenous GA; and plants that are treated with exogenous GA3. […] Line 724 dwarf plants produces equivalent yields to the wild-type plants within this line without any external spraying. […] Line 724 has no reduction in seed weight in dwarfs without supplying exogenous GA.

| Structure (SMILES) | 719 Height, cm, Heavy soil ([4]; 0.1 μg compound per seed) | 719 Height, cm, Light soil ([4]; 0.1 μg compound per seed) | No. 719 Emerged, Heavy soil ([4]; 0.1 μg compound per seed) | No. 719 Emerged, Light soil ([4]; 0.1 μg compound per seed) | No. 719 Not Rescued, Heavy soil ([4]; 0.1 μg compound per seed) | No. 719 Not Rescued, Light soil ([4]; 0.1 μg compound per seed) | 719 Height, cm, Heavy soil ([4]; 1 μg compound per seed) | 719 Height, cm, Light soil ([4]; 1 μg compound per seed) | 719 Height, cm, Heavy soil ([4]; 10 μg compound per seed) | 719 Height, cm, Light soil ([4]; 10 μg compound per seed) | No. 719 Emerged, Heavy soil ([4]; 10 μg compound per seed) | No. 719 Emerged, Light soil ([4]; 10 μg compound per seed) | No. 719 Not Rescued, Heavy soil ([4]; 10 μg compound per seed) | No. 719 Not Rescued, Light soil ([4]; 10 μg compound per seed) | 719 Height, cm, Heavy soil ([4]; 100 μg compound per seed) | 719 Height, cm, Light soil ([4]; 100 μg compound per seed) | No. 719 Emerged, Heavy soil ([4]; 100 μg compound per seed) | No. 719 Emerged, Light soil ([4]; 100 μg compound per seed) | No. 719 Not Rescued, Heavy soil ([4]; 100 μg compound per seed) | No. 719 Not Rescued, Light soil ([4]; 100 μg compound per seed) | other results |
| --- | --- | --- | --- | --- | --- | --- | --- | --- | --- | --- | --- | --- | --- | --- | --- | --- | --- | --- | --- | --- | --- |
| C=C1C[C@]23C[C@@]1(O)CC[C@H]2[C@@]12C=C[C@H](O)[C@@](C)(C(=O)O1)[C@H]2[C@@H]3C(=O)O [GA3, gibberellic acid] | 5.7 cd cm | 5.7 ef cm | 19.7 a-d | 21.3 abc | 0 f | 1 | 5.3 cde cm | 5.7 ef cm | 10.3 a cm | 11.7 bc cm | 18.3 a-e | 21.0 abc | 0 f | 0 | 9.3 ab cm | 13.7 a cm | 8.0 f | 16.7 cd | 0 f | 0 | reversal of ancymidol inhibition of soybean stature [1]: Good reversal of ancymidol inhibition of soybean stature; Plant height (cm) [2]: 14.9 (0.3) cm; emergence delay [3]: rescuing the emergence delay; No. 719 Emerged, Heavy soil ([4]; 1 μg compound per seed): 17.3 b-e; No. 719 Emerged, Light soil ([4]; 1 μg compound per seed): 20.7 abc; No. 719 Not Rescued, Heavy soil ([4]; 1 μg compound per seed): 0.3 ef; No. 719 Not Rescued, Light soil ([4]; 1 μg compound per seed): 0; hypocotyl elongation of wild-type (A3237) soybean (FIG. 41) [5]: overelongation of A3237 hypocotyls; dose of GA3 needed to fully restore normal seedling height ([6]; 4 DAP): 10^−7 M; dose of GA3 needed to fully restore normal seedling height ([6]; 11 DAP): greater than 10^−5 M; reduction of seed weight per seed ([7]; dwarf plants, GA treatments): nearly completely rescued; seed yield restored, % of the yield of the wild-types ([7]; dwarfs treated continuously with GA3, lines 696 and 719): 70% |
| C=C1C[C@]23C[C@H]1CC[C@H]2[C@]1(C)CCC[C@@](C)(C(=O)O)[C@H]1[C@@H]3C(=O)O [GA12] | 4.0 d-i cm | 4.0 g·cm | 20.7 a-d | 22.3 a | 4.3 bc | 6.3 b | 3.3 e-i cm | 4.0 g·cm | 3.0 f-i cm | 2.3 cm·h | 22.3 ab | 21.0 ab | 1.7 def | 1.7 efg | 2.7 ghi cm | 2.0 cm·h | 20.7 a-d | 21.3 ab | 2.0 de | 1 | No. 719 Emerged, Heavy soil ([4]; 1 μg compound per seed): 21.0 abc; No. 719 Emerged, Light soil ([4]; 1 μg compound per seed): 22.0 a; No. 719 Not Rescued, Heavy soil ([4]; 1 μg compound per seed): 5.3 ab; No. 719 Not Rescued, Light soil ([4]; 1 μg compound per seed): 3.7 cd; 719 Height, cm, Heavy soil ([4]; 50 μg compound per seed): 3.3 e-i cm; 719 Height, cm, Light soil ([4]; 50 μg compound per seed): 2.3 cm·h; No. 719 Emerged, Heavy soil ([4]; 50 μg compound per seed): 23.7 a; No. 719 Emerged, Light soil ([4]; 50 μg compound per seed): 22.3 a; No. 719 Not Rescued, Heavy soil ([4]; 50 μg compound per seed): 5.0 bc; No. 719 Not Rescued, Light soil ([4]; 50 μg compound per seed): 3.0 cde |
| C=C1C[C@]23C[C@@]1(O)CC[C@H]2[C@@]12C=C[C@H](OC(C)=O)[C@@](C)(C(=O)O1)[C@H]2[C@@H]3C(=O)O [GA3-3-acetate] | 3.3 e-i cm | 5.3 efg cm | 18.7 a-d | 21.0 ab | 0.3 ef | 0.7 | 6.0 cd cm | 6.3 e cm | 9.0 ab cm | 223 cm·h | 17.7 a-e | 20.3 a-d | 0 f | 0 | 8.7 ab cm | 12.0 b cm | 16.7 b-e | 17.7 b-f | 0 f | 0 | No. 719 Emerged, Heavy soil ([4]; 1 μg compound per seed): 21.3 abc; No. 719 Emerged, Light soil ([4]; 1 μg compound per seed): 21.7 ab; No. 719 Not Rescued, Heavy soil ([4]; 1 μg compound per seed): 0 f; No. 719 Not Rescued, Light soil ([4]; 1 μg compound per seed): 0.3; preferred seed coating rate in this experiment ([4]; judged on lines 719 and A4922, light and heavy soil): about 1 μg per seed |
| C=C1C[C@]23C[C@@]1(O)CC[C@H]2[C@@]12CC=C[C@@](C)(C(=O)O1)[C@H]2[C@@H]3C(=O)O [GA5] | 5.0 def cm | 4.3e-15 g·cm | 22.0 ab | 21.7 ab | 1.7 def | 4.3 c | 4.7 g·cm·days | 6.3 e cm | 7.3 bc cm | 11.3 bc cm | 20.0 a-d | 20.0 a-d | 0.3 ef | 0.7 | 9.0 ab cm | 12.0 b cm | 12.3 ef | 14.3 f | 0 f | 0 | No. 719 Emerged, Heavy soil ([4]; 1 μg compound per seed): 21.0 abc; No. 719 Emerged, Light soil ([4]; 1 μg compound per seed): 22.7 a; No. 719 Not Rescued, Heavy soil ([4]; 1 μg compound per seed): 0.7 ef; No. 719 Not Rescued, Light soil ([4]; 1 μg compound per seed): 0 |
| C=C1C[C@]23C[C@H]1CC[C@H]2[C@@]12CCC[C@@](C)(C(=O)O1)[C@H]2[C@@H]3C(=O)O [GA9] | – | – | – | – | – | – | – | – | 4.0 d-i cm | 5.0 efg cm | 16.3 b-e | 21.7 ab | 0.7 ef | 0.3 | 8.3 ab cm | 10.3 cd cm | 20.3 a-d | 19.0 a-e | 0 f | 0 | appearance of line 719 seedlings ([4]; 0.1 and 1 μg per seed): appeared unusually abnormal |
